Measurements taken from patent US9896491B2, “Composition for treatment of multiple sclerosis” (LIFEBIO LABORATORIES LLC, priority 2009, dated 2018).

Experiments:
ESAMBPCAA [1] = test: Inhibition of ESAMBPCAA mediated MBP hydrolysis by synthetic oligopeptides of MBP fragment 43-68; assay type: biochemical, human; settings: antibodies 30 nM, MBP 4 mkM, 16 h at 37° C.; FIG. 3
Protocol: (§1) MBP hydrolysis by anti MBP auto antibodies was assayed as follows: Purified antibodies (0.1-1 μg) were incubated at 37° C. for 14 h in the final volume of 12.5 μl PBS, 0.02% NaN3 containing 1-2 μg of MBP. The samples were mixed with Laemmli's buffer. The extent of MBP degradation was visualized by SDS-PAGE in Tris-glycine and Tricine buffer systems. For quantitative MBP degradation assay, MBP (10 μM) was incubated at 37° C. with antibodies (60 nM) in 0.1 ml of PBS, 0.02% NaN3 for 12 h. The reaction was stopped by adding 10% TFA up to pH 2.5. The samples were further chromatographed on column C4 4.0/150 (Waters). The amount of non-cleaved MBP was calculated by absorbance monitoring at 280 nm.
The oligopeptides were assayed for their potency to inhibit ESAMBPCAA mediated MBP hydrolysis using ESAMBPCAA collected from progressive MS Patient as specified in Example 1. Different concentrations of test peptides were mixed with both antibodies (30 nM) and MBP (4 mkM) in TBS with_0.1% NaN3_and 10 mM CaCl2. The samples were incubated for 16 h at 37° C. and analyzed on 15% SDS_PAGE. The gels were stained by Coomassie and analyzed by densitometry with TOTALLAB 2.01 software (Nonlinear Dynamics, Ltd., Newcastle upon Tyne, U.K.). […] Shortening of oligopeptide lengths to less than 6 amino acids lead to complete lack of ESAMBPCAA inhibitory activity.

ESAMBPCAA [2] = test: ESAMBPCAA mediated MBP hydrolysis in serum samples of progressive MS patients in presence of test substances; assay type: biochemical, human; settings: for MBP-specific auto antibody mediated hydrolysis: test substance 100 nM
Protocol: as §1
Serum samples collected from 5 patients suffering from progressive MS were quantified for ESAMBPCAA mediated MBP hydrolysis as specified in Example 1 in presence of following substances: […]

[3] = tested on: Experimental Allergic Encephalomyelitis (EAE) in Dark Agouti (DA) Rats; test: EAE induced by MBP 63-81 in DA rats: clinical signs score; assay type: in vivo
Protocol: Female Dark Agouti (DA) Rats, 8-9 weeks of age, about 110-145 g of weight were used as test animals.
For induction of Experimental Allergic Encephalomyelitis (EAE), rats were injected intradermally at the base of the tail with a total volume of 200 μl of inoculum containing 50 μg of MBP 63-81 (ANASPEC), in saline mixed (1:1) with Complete Freund Adjuvant, (IFA, Sigma), and 1 mg killed M. tuberculosis strain (strain H37 RA; Difco Laboratories, Detroit, Mich.). Beginning 24 hours after EAE induction the rats were followed up daily. On day 9 after the after EAE induction more than 50% of the rats developed signs of paralysis. The animals with multiple sclerosis signs were separated into 10 groups for beginning of treatment. Prior to treatment, blood was collected from 2 rats from each group. At day 9 and 11 after EAE induction, 90% of rats developed signs of EAE.
9-11 days after EAE induction the animals were divided into 9 groups (5-6 rats in each). Each group of rats was treated subcutaneously once daily with different claimed oligopeptide or theirs combinations (equimolar mix) (150 μg) or doses of positive control item (Glatiramer acetate, Copaxone, Teva) or negative control item (0.9% Sodium chloride solution), during 6 days as follows:
Copaxone, claimed oligopeptide and combinations thereof (Mechanical mix) were diluted with 0.9% Sodium chloride to a concentration of 450 μg/ml. Volume of 0.33 ml (150 μg/rat/day) was injected SC during 6 days.
After 6 days of the injections cycle the animals were maintained and followed up till day 28th post EAE induction. Clinical signs score was performed daily during study periods. Animals were observed individually during all study periods. In cases of extended observation period clinical signs were recorded once daily. Observations included changes in the fur, eyes, respiratory rate, vocalization, paralysis, activity and behavior pattern. Score of paralysis signs related to MS of each animal was done daily (during all study periods).
Score gradation was as follows: 0—Normal; 1—Tail weakness; 2—Hind leg weakness or paralysis; 3—Hind leg paralysis, dragging hind limbs; 4—Complete paralysis, unable to move; 5—Death.

[4] = tested on: Experimental MS (Theiler's Virus Infection) in SJL mice; test: Experimental MS (Theiler's Virus Infection): disease manifestation and MDS score; assay type: in vivo; settings: 20 μg of each oligopeptide daily subcutaneous, days 14-24
Protocol: (§2) The BeAn strain of TMEV used in this study was generated and propagated in BHK-21 cells grown in Dulbecco's modified Eagle's medium supplemented with 7.5% donor calf serum. For i.c. infection, 30 μl of virus solution (0.2×10^6 to 6×10^6 PFU) was injected into the right cerebral hemisphere of 6- to 8-week-old SJL mice (8 animals per group) anesthetized with isoflurane. Clinical symptoms (MDS score) of disease were assessed weekly on the following grading scale: grade 0, no clinical signs; grade 1, mild waddling gait or flaccid tail; grade 2, severe waddling gait; grade 3, moderate hind limb paresis; and grade 4, severe hind limb paralysis. Serum samples collected from animals were quantified for ESAMBPCAA mediated MBP hydrolysis as specified in Example 1
(§3) At day 14 following infection mice were divided into 6 groups ([…]) and treated during 10 days (days 14-24) according following schedule: […]

[5] = tested on: Experimental Allergic Encephalomyelitis (EAE) in DA rats; test: MDS score in EAE DA rats; assay type: in vivo; settings: intranasal, days 8-12; FIG. 4; dose-dependent for SEQ ID NO: 2
ESAMBPCAA [6] = test: ESAMBPCAA mediated MBP hydrolysis in serum of treated TMEV-infected SJL mice; assay type: in vivo; settings: 20 μg of each oligopeptide daily subcutaneous, days 14-24
Protocol: as §1, §2, §3

ESAMBPCAA [7] = test: ESAMBPCAA mediated MBP hydrolysis in serum of treated EAE DA rats; assay type: in vivo; settings: days 8-12; for rates of MBP-specific auto antibody mediated hydrolysis: median for 6 animals
[8] = tested on: secondary progressive MS patients; settings: phase I; cited from earlier work

**Q.** Which results are given for GGDRGAPKRGSGKDSHH [SEQ ID NO: 2]?
**A.** inhibition of ESAMBPCAA activity (ESAMBPCAA mediated MBP hydrolysis) (ESAMBPCAA [1]): most potent inhibitory activity; suppressive effect on MBP-specific auto antibody mediated hydrolysis (ESAMBPCAA [2]; 100 nM, summary of Table 3): potent suppressive effect; MBP-specific auto antibody mediated hydrolysis (ESAMBPCAA [2]; Patient 1): 11.2 ± 3.5 pmol/min/nmol; MBP-specific auto antibody mediated hydrolysis (ESAMBPCAA [2]; Patient 2): 17.3 ± 4.1 pmol/min/nmol; MBP-specific auto antibody mediated hydrolysis (ESAMBPCAA [2]; Patient 3): 14.4 ± 2.2 pmol/min/nmol; MBP-specific auto antibody mediated hydrolysis (ESAMBPCAA [2]; Patient 4): 14.5 ± 4.4 pmol/min/nmol; MBP-specific auto antibody mediated hydrolysis (ESAMBPCAA [2]; Patient 5): 16.9 ± 7.3 pmol/min/nmol; suppression of EAE clinical signs ([3]; 150 μg/rat/day SC during 6 days): most efficiently suppressed; Clinical signs score on day 23 after induction (mean) ([3]; 150 μg/rat/day SC during 6 days from day 9-11 after EAE induction, score 0-5): 0.5; disease-preventive (prophylactic) activity [4]: disease-preventive (prophylactic) activity; % Animals affected with disease at day 100 ([4]; 30 mice per group): 19(30) %; suppression of MDS score ([4]; FIG. 5): most efficiently suppressed; suppression of MDS score [5]: most efficiently suppressed; ESAMBPCAA activity at day 100 (ESAMBPCAA [6]): 11.4 ± 3.5 pmol/min/nmol; suppression of MBP-specific auto antibody mediated hydrolysis (ESAMBPCAA [6]): most efficiently suppressed; rates of MBP-specific auto antibody mediated hydrolysis (ESAMBPCAA [7]; Day 8 (start of treatment), 50 μg daily intranasal): 43.1 ± 6.4 pmol/min/nmol; rates of MBP-specific auto antibody mediated hydrolysis (ESAMBPCAA [7]; Day 8 (start of treatment), 120 μg daily intranasal): 42.8 ± 5.5 pmol/min/nmol; rates of MBP-specific auto antibody mediated hydrolysis (ESAMBPCAA [7]; Day 16, 50 μg daily intranasal): 35.6 ± 4.9 pmol/min/nmol; rates of MBP-specific auto antibody mediated hydrolysis (ESAMBPCAA [7]; Day 16, 120 μg daily intranasal): 17.3 ± 5.4 pmol/min/nmol; rates of MBP-specific auto antibody mediated hydrolysis (ESAMBPCAA [7]; Day 24, 50 μg daily intranasal): 46.3 ± 2.9 pmol/min/nmol; rates of MBP-specific auto antibody mediated hydrolysis (ESAMBPCAA [7]; Day 24, 120 μg daily intranasal): 15.1 ± 3.9 pmol/min/nmol; suppression of MBP-specific auto antibody mediated hydrolysis (ESAMBPCAA [7]; intranasal, dose-dependent for SEQ ID NO: 2): most efficiently suppressed

**Q.** For “MBP 84-102: MBP 84-102 fragment (U.S. Pat. No. 5,858,980) (DPGSRPHLIRLFSRDAPGR; UniProt P02686 84-102, looked up, fragment)”, which “treatment efficacy (Expanded Disability Status Scale, Nine Hole Peg Test, new lesions by Magnetic Resonance Imaging)” value [8] is on record?
**A.** The value was “No treatment efficacy were detected”.
